Data taken from US20240132431A1, “METHOD FOR ALKYLATING ACIDIC FUNCTIONAL GROUP” (Chugai Seiyaku Kabushiki Kaisha, priority 2021, published 2024).

Biological target: T1, Bcl-2 protein (Recombinant Human Bcl-2 Protein) (Homo sapiens, UniProt P10415)
T1 construct: purchased Novus NBP2-34889
Assay: Binding evaluation of mixture library compounds to Bcl-2 using AS-MS (affinity selection mass spectrometry)
Settings: AS-MS on the mixture of 1200 library compounds, ASMS Ratio(%)=(A−C)/B×100; for ASMS ratio (%) n = 1: replicate n = 1; for ASMS ratio (%) n = 2: replicate n = 2
Outline: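 Readout is ASMS Ratio (%), (A−C)/B×100, from reversed-phase LC/MS of SEC-passed extracts, with protein-free unfiltered standard (B) and protein-free SEC blank (C). Recombinant human Bcl-2 at 20 μM final met ~1200 pooled compounds at […] each for 1 h, 23° C., dark, in Tris-HCl pH 7.4 buffer.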

T1 sequence (P10415 whole entry): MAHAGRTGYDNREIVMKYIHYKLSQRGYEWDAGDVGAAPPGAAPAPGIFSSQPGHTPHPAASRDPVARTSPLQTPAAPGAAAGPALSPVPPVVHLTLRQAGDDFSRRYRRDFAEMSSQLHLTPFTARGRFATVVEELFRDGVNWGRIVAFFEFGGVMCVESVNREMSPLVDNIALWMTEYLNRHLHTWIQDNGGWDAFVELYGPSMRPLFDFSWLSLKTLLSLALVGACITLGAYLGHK

Row | SMILES | ASMS ratio (%) n = 1 | ASMS ratio (%) n = 2
1 | CCOc1cncc(-c2cc(C(=O)N3CCN(c4ccc(C(=O)N(CC)CC)nn4)CC3)cc(C(C)(C)C)c2)c1 [B4J016-01, 6-[4-[3-tert-Butyl-5-(5-ethoxypyridin-3-yl)benzoyl]piperazin-1-yl]-N,N-diethylpyridazine-3-carboxamide] | 0.0% | 0.9%
2 | CCOc1cccc(-c2cc(C(=O)N3CCN(c4ccc(C(=O)N(CC)CC)nn4)CC3)cc(C(F)(F)F)c2)c1 [B4J017-01, 6-[4-[3-(3-Ethoxyphenyl)-5-(trifluoromethyl)benzoyl]piperazin-1-yl]-N,N-diethylpyridazine-3-carboxamide] | −0.3% | −0.5%
3 | CCOc1cncc(-c2cc(C(=O)N3CCN(c4ccc(C(=O)N(CC)CC)nn4)CC3)cc(C(F)(F)F)c2)c1 [B4J018-01, 6-[4-[3-(5-Ethoxypyridin-3-yl)-5-(trifluoromethyl)benzoyl]piperazin-1-yl]-N,N-diethylpyridazine-3-carboxamide] | −0.5% | −1.7%
4 | CCOc1cccc(C#Cc2cc(C(=O)N3CCN(c4ccc(C(=O)N(CC)CC)nn4)CC3)cc(C(F)(F)F)c2)c1 [B4J019-01, 6-[4-[3-[2-(3-Ethoxyphenyl)ethynyl]-5-(trifluoromethyl)benzoyl]piperazin-1-yl]-N,N-diethylpyridazine-3-carboxamide] | −0.5% | −2.1%
5 | CCOc1cncc(C#Cc2cc(C(=O)N3CCN(c4ccc(C(=O)N(CC)CC)nn4)CC3)cc(C(F)(F)F)c2)c1 [B4J020-01, 6-[4-[3-[2-(5-Ethoxypyridin-3-yl)ethynyl]-5-(trifluoromethyl)benzoyl]piperazin-1-yl]-N,N-diethylpyridazine-3-carboxamide] | 0.0% | 0.0%
6 | CCOc1cccc(-c2cnn(-c3cc(C(=O)N4CCN(c5ccc(C(=O)N(CC)CC)nn5)CC4)cc(C(F)(F)F)c3)c2)c1 [B4J021-01, 6-[4-[3-[4-(3-Ethoxyphenyl)pyrazol-1-yl]-5-(trifluoromethyl)benzoyl]piperazin-1-yl]-N,N-diethylpyridazine-3-carboxamide] | 0.0% | 0.0%
7 | CCOc1cncc(-c2cnn(-c3cc(C(=O)N4CCN(c5ccc(C(=O)N(CC)CC)nn5)CC4)cc(C(F)(F)F)c3)c2)c1 [B4J022-01, 6-[4-[3-[4-(5-Ethoxypyridin-3-yl)pyrazol-1-yl]-5-(trifluoromethyl)benzoyl]piperazin-1-yl]-N,N-diethylpyridazine-3-carboxamide] | 0.2% | −0.7%
8 | CCOc1cccc(-c2csc(C(=O)N3CCN(c4ccc(C(=O)N(CC)CC)cc4)CC3)c2)c1 [B4J023-01, 4-[4-[4-(3-Ethoxyphenyl)thiophene-2-carbonyl]piperazin-1-yl]-N,N-diethylbenzamide] | 3.5% | −3.4%
9 | CCOc1cncc(-c2csc(C(=O)N3CCN(c4ccc(C(=O)N(CC)CC)cc4)CC3)c2)c1 [B4J024-01, 4-[4-[4-(5-Ethoxypyridin-3-yl)thiophene-2-carbonyl]piperazin-1-yl]-N,N-diethylbenzamide] | −0.6% | 6.8%
10 | CCOc1cccc(-c2ccc(C(=O)N3CCN(c4ccc(C(=O)N(CC)CC)cc4)CC3)cc2C)c1 [B4J025-01, 4-[4-[4-(3-Ethoxyphenyl)-3-methylbenzoyl]piperazin-1-yl]-N,N-diethylbenzamide] | 3.6% | −0.3%
11 | CCOc1cncc(-c2ccc(C(=O)N3CCN(c4ccc(C(=O)N(CC)CC)cc4)CC3)cc2C)c1 [B4J026-01, 4-[4-[4-(5-Ethoxypyridin-3-yl)-3-methylbenzoyl]piperazin-1-yl]-N,N-diethylbenzamide] | −3.6% | −5.9%
12 | CCOc1cccc(-c2ccc(C(=O)N3CCN(c4ccc(C(=O)N(CC)CC)cc4)CC3)cc2F)c1 [B4J027-01, 4-[4-[4-(3-Ethoxyphenyl)-3-fluorobenzoyl]piperazin-1-yl]-N,N-diethylbenzamide] | −0.5% | 0.2%
13 | CCOc1cncc(-c2ccc(C(=O)N3CCN(c4ccc(C(=O)N(CC)CC)cc4)CC3)cc2F)c1 [B4J028-01, 4-[4-[4-(5-Ethoxypyridin-3-yl)-3-fluorobenzoyl]piperazin-1-yl]-N,N-diethylbenzamide] | −1.0% | 0.9%
14 | CCOc1cccc(C#Cc2ccccc2C(=O)N2CCN(c3ccc(C(=O)N(CC)CC)cc3)CC2)c1 [B4J029-01, 4-[4-[2-[2-(3-Ethoxyphenyl)ethynyl]benzoyl]piperazin-1-yl]-N,N-diethylbenzamide] | 0.0% | 0.0%
15 | CCOc1cncc(C#Cc2ccccc2C(=O)N2CCN(c3ccc(C(=O)N(CC)CC)cc3)CC2)c1 [B4J030-01, 4-[4-[2-[2-(5-Ethoxypyridin-3-yl)ethynyl]benzoyl]piperazin-1-yl]-N,N-diethylbenzamide] | 0.1% | 0.8%
16 | CCOc1cccc(C#Cc2cncc(C(=O)N3CCN(c4ccc(C(=O)N(CC)CC)cc4)CC3)c2)c1 [B4J031-01, 4-[4-[5-[2-(3-Ethoxyphenyl)ethynyl]pyridine-3-carbonyl]piperazin-1-yl]-N,N-diethylbenzamide] | 0.1% | 0.8%
17 | CCOc1cncc(C#Cc2cncc(C(=O)N3CCN(c4ccc(C(=O)N(CC)CC)cc4)CC3)c2)c1 [B4J032-01, 4-[4-[5-[2-(5-Ethoxypyridin-3-yl)ethynyl]pyridine-3-carbonyl]piperazin-1-yl]-N,N-diethylbenzamide] | −7.2% | 1.5%
18 | CCOc1cccc(-c2ccccc2CCC(=O)N2CCN(c3ccc(C(=O)N(CC)CC)cc3)CC2)c1 [B4J033-01, 4-[4-[3-[2-(3-Ethoxyphenyl)phenyl]propanoyl]piperazin-1-yl]-N,N-diethylbenzamide] | 0.0% | −0.9%
19 | CCOc1cncc(-c2ccccc2CCC(=O)N2CCN(c3ccc(C(=O)N(CC)CC)cc3)CC2)c1 [B4J034-01, 4-[4-[3-[2-(5-Ethoxypyridin-3-yl)phenyl]propanoyl]piperazin-1-yl]-N,N-diethylbenzamide] | −0.7% | 0.9%
20 | CCOc1cccc(-c2ccc(C(=O)N3CCN(c4ccc(C(=O)N(CC)CC)cc4)CC3)c3ccccc23)c1 [B4J035-01, 4-[4-[4-(3-Ethoxyphenyl)naphthalene-1-carbonyl]piperazin-1-yl]-N,N-diethylbenzamide] | 4.1% | 1.5%
21 | CCOc1cncc(-c2ccc(C(=O)N3CCN(c4ccc(C(=O)N(CC)CC)cc4)CC3)c3ccccc23)c1 [B4J036-01, 4-[4-[4-(5-Ethoxypyridin-3-yl)naphthalene-1-carbonyl]piperazin-1-yl]-N,N-diethylbenzamide] | −0.3% | −1.6%
22 | CCOc1cccc(-c2cc(C(=O)N3CCN(c4ccc(C(=O)N(CC)CC)cc4)CC3)cc(C(C)(C)C)c2)c1 [B4J037-01, 4-[4-[3-tert-Butyl-5-(3-ethoxyphenyl)benzoyl]piperazin-1-yl]-N,N-diethylbenzamide] | 2.7% | −1.5%
23 | CCOc1cncc(-c2cc(C(=O)N3CCN(c4ccc(C(=O)N(CC)CC)cc4)CC3)cc(C(C)(C)C)c2)c1 [B4J038-01, 4-[4-[3-tert-Butyl-5-(5-ethoxypyridin-3-yl)benzoyl]piperazin-1-yl]-N,N-diethylbenzamide] | 0.8% | 0.0%
24 | CCOc1cccc(-c2cc(C(=O)N3CCN(c4ccc(C(=O)N(CC)CC)cc4)CC3)cc(C(F)(F)F)c2)c1 [B4J039-01, 4-[4-[3-(3-Ethoxyphenyl)-5-(trifluoromethyl)benzoyl]piperazin-1-yl]-N,N-diethylbenzamide] | 2.2% | 0.1%
25 | CCOc1cncc(-c2cc(C(=O)N3CCN(c4ccc(C(=O)N(CC)CC)cc4)CC3)cc(C(F)(F)F)c2)c1 [B4J040-01, 4-[4-[3-(5-Ethoxypyridin-3-yl)-5-(trifluoromethyl)benzoyl]piperazin-1-yl]-N,N-diethylbenzamide] | −0.5% | −1.2%
26 | CCOc1cccc(C#Cc2cc(C(=O)N3CCN(c4ccc(C(=O)N(CC)CC)cc4)CC3)cc(C(F)(F)F)c2)c1 [B4J041-01, 4-[4-[3-[2-(3-Ethoxyphenyl)ethynyl]-5-(trifluoromethyl)benzoyl]piperazin-1-yl]-N,N-diethylbenzamide] | 2.8% | 1.7%
27 | CCOc1cncc(C#Cc2cc(C(=O)N3CCN(c4ccc(C(=O)N(CC)CC)cc4)CC3)cc(C(F)(F)F)c2)c1 [B4J042-01, 4-[4-[3-[2-(5-Ethoxypyridin-3-yl)ethynyl]-5-(trifluoromethyl)benzoyl]piperazin-1-yl]-N,N-diethylbenzamide] | 1.0% | 0.0%
28 | CCOc1cccc(-c2cnn(-c3cc(C(=O)N4CCN(c5ccc(C(=O)N(CC)CC)cc5)CC4)cc(C(F)(F)F)c3)c2)c1 [B4J043-01, 4-[4-[3-[4-(3-Ethoxyphenyl)pyrazol-1-yl]-5-(trifluoromethyl)benzoyl]piperazin-1-yl]-N,N-diethylbenzamide] | 3.8% | 3.2%
29 | CCOc1cncc(-c2cnn(-c3cc(C(=O)N4CCN(c5ccc(C(=O)N(CC)CC)cc5)CC4)cc(C(F)(F)F)c3)c2)c1 [B4J044-01, 4-[4-[3-[4-(5-Ethoxypyridin-3-yl)pyrazol-1-yl]-5-(trifluoromethyl)benzoyl]piperazin-1-yl]-N,N-diethylbenzamide] | 1.8% | 0.3%
